Data from PubChem BioAssay AID1845201 (Molecular Pharmacology Branch, DTP, NCI, 2023).

Tested on: COR L88 complex tumor spheroid viability
Test: Anticancer human tumor COR L88 cell line growth inhibition;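 also: compound exposure lasted 7 days before viability readout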;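 as to viability, T/C: percent of DMSO vehicle-treated spheroids = 100%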
Details: for IC50: curve of first compound; for viability, T/C: stronger effect = lower value
Outline: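 Complex spheroids of malignant cells with endothelial cells and mesenchymal stem cells; agents alone or combined, from near clinical Cmax (or 10 microM if unknown) down in half-log steps, 0.25% DMSO final.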

[1] = second compound 30 pM, first compound 0.0316 µM
[2] = second compound 30 pM, first compound 0.1 µM
[3] = second compound 30 pM, first compound 0.316 µM
[4] = second compound 30 pM, first compound 1 µM
[5] = second compound 30 pM, first compound 3.16 µM
[6] = second compound 30 pM, first compound 10 µM
[7] = second compound 94.9 pM, first compound 0.0316 µM
[8] = second compound 94.9 pM, first compound 0.1 µM
[9] = second compound 94.9 pM, first compound 0.316 µM
[10] = second compound 94.9 pM, first compound 1 µM
[11] = second compound 94.9 pM, first compound 3.16 µM
[12] = second compound 94.9 pM, first compound 10 µM
[13] = second compound 0.0003 µM, first compound 0.0316 µM
[14] = second compound 0.0003 µM, first compound 0.1 µM
[15] = second compound 0.0003 µM, first compound 0.316 µM
[16] = second compound 0.0003 µM, first compound 1 µM
[17] = second compound 0.0003 µM, first compound 3.16 µM
[18] = second compound 0.0003 µM, first compound 10 µM
[19] = second compound 0.000949 µM, first compound 0.0316 µM
[20] = second compound 0.000949 µM, first compound 0.1 µM
[21] = second compound 0.000949 µM, first compound 0.316 µM
[22] = second compound 0.000949 µM, first compound 1 µM
[23] = second compound 0.000949 µM, first compound 3.16 µM
[24] = second compound 0.000949 µM, first compound 10 µM
[25] = second compound 0.003 µM, first compound 0.0316 µM
[26] = second compound 0.003 µM, first compound 0.1 µM
[27] = second compound 0.003 µM, first compound 0.316 µM
[28] = second compound 0.003 µM, first compound 1 µM
[29] = second compound 0.003 µM, first compound 3.16 µM
[30] = second compound 0.003 µM, first compound 10 µM
[31] = second compound 1 µM, first compound 0.00949 µM
[32] = second compound 1 µM, first compound 0.03 µM
[33] = second compound 1 µM, first compound 0.0949 µM
[34] = second compound 1 µM, first compound 0.3 µM
[35] = second compound 1 µM, first compound 0.949 µM
[36] = second compound 1 µM, first compound 3 µM
[37] = second compound 3.16 µM, first compound 0.00949 µM
[38] = second compound 3.16 µM, first compound 0.03 µM
[39] = second compound 3.16 µM, first compound 0.0949 µM
[40] = second compound 3.16 µM, first compound 0.3 µM
[41] = second compound 3.16 µM, first compound 0.949 µM
[42] = second compound 3.16 µM, first compound 3 µM
[43] = second compound 10 µM, first compound 0.00949 µM
[44] = second compound 10 µM, first compound 0.03 µM
[45] = second compound 10 µM, first compound 0.0949 µM
[46] = second compound 10 µM, first compound 0.3 µM
[47] = second compound 10 µM, first compound 0.949 µM
[48] = second compound 10 µM, first compound 3 µM
[49] = second compound 31.6 µM, first compound 0.00949 µM
[50] = second compound 31.6 µM, first compound 0.03 µM
[51] = second compound 31.6 µM, first compound 0.0949 µM
[52] = second compound 31.6 µM, first compound 0.3 µM
[53] = second compound 31.6 µM, first compound 0.949 µM
[54] = second compound 31.6 µM, first compound 3 µM
[55] = second compound 100 µM, first compound 0.00949 µM
[56] = second compound 100 µM, first compound 0.03 µM
[57] = second compound 100 µM, first compound 0.0949 µM
[58] = second compound 100 µM, first compound 0.3 µM
[59] = second compound 100 µM, first compound 0.949 µM
[60] = second compound 100 µM, first compound 3 µM

Compound: CC(C)n1c(=O)n(C)c2cnc3cc(F)c(-c4ccc(OCCCN5CCCCC5)nc4)cc3c21 + COc1cc2c(cc1O)CCNC21CSC2c3c(OC(C)=O)c(C)c4c(c3C(COC1=O)N1C(O)C3Cc5cc(C)c(OC)c(O)c5C(C21)N3C)OCO4
- IC50 (second compound 30 pM): > 10000 nM
- IC50 (second compound 94.9 pM): 9080 nM
- IC50 (second compound 0.0003 µM): 4840 nM
- IC50 (second compound 0.000949 µM): 1990 nM
- IC50 (second compound 0.003 µM): < 31.6 nM
- viability, T/C [1]: 104%
- viability, T/C [2]: 107%
- viability, T/C [3]: 95.9%
- viability, T/C [4]: 104%
- viability, T/C [5]: 94.1%
- viability, T/C [6]: 51.2%
- viability, T/C [7]: 104%
- viability, T/C [8]: 103%
- viability, T/C [9]: 98%
- viability, T/C [10]: 103%
- viability, T/C [11]: 89.3%
- viability, T/C [12]: 46.1%
- viability, T/C [13]: 64.2%
- viability, T/C [14]: 67.4%
- viability, T/C [15]: 65.2%
- viability, T/C [16]: 68.3%
- viability, T/C [17]: 61.2%
- viability, T/C [18]: 30.1%
- viability, T/C [19]: 57.3%
- viability, T/C [20]: 54.5%
- viability, T/C [21]: 54.7%
- viability, T/C [22]: 53.9%
- viability, T/C [23]: 47.3%
- viability, T/C [24]: 11.1%
- viability, T/C [25]: 0.74%
- viability, T/C [26]: 0.77%
- viability, T/C [27]: 0.6%
- viability, T/C [28]: 0.82%
- viability, T/C [29]: 0.66%
- viability, T/C [30]: 0.99%

Compound: COc1ccc([C@@H](O)c2cc(-c3ncnc4cc(N5CCOCC5)ccc34)c(F)cc2Cl)nn1 + COc1cc2c(cc1O)CCNC21CSC2c3c(OC(C)=O)c(C)c4c(c3C(COC1=O)N1C(O)C3Cc5cc(C)c(OC)c(O)c5C(C21)N3C)OCO4
- IC50 (second compound 30 pM): 7580 nM
- IC50 (second compound 94.9 pM): > 10000 nM
- IC50 (second compound 0.0003 µM): 1150 nM
- IC50 (second compound 0.000949 µM): 111 nM
- IC50 (second compound 0.003 µM): < 31.6 nM
- viability, T/C [1]: 100%
- viability, T/C [2]: 115%
- viability, T/C [3]: 93.9%
- viability, T/C [4]: 89.2%
- viability, T/C [5]: 64.6%
- viability, T/C [6]: 45.3%
- viability, T/C [7]: 104%
- viability, T/C [8]: 108%
- viability, T/C [9]: 102%
- viability, T/C [10]: 67.8%
- viability, T/C [11]: 57.4%
- viability, T/C [12]: 52.2%
- viability, T/C [13]: 71.4%
- viability, T/C [14]: 63.9%
- viability, T/C [15]: 61.7%
- viability, T/C [16]: 52.5%
- viability, T/C [17]: 35.8%
- viability, T/C [18]: 9.95%
- viability, T/C [19]: 63.2%
- viability, T/C [20]: 51.9%
- viability, T/C [21]: 22.9%
- viability, T/C [22]: 1.63%
- viability, T/C [23]: 0.6%
- viability, T/C [24]: 1.43%
- viability, T/C [25]: 0.95%
- viability, T/C [26]: 1.03%
- viability, T/C [27]: 1.37%
- viability, T/C [28]: 2.44%
- viability, T/C [29]: 2.37%
- viability, T/C [30]: 2.01%

Compound: CNCc1ccc(-c2cc(-c3nc(-c4ccc(S(=O)(=O)C(C)C)cc4)cnc3N)on2)cc1 + Cn1nnc2c(C(N)=O)ncn2c1=O
- IC50 (second compound 1 µM): 618 nM
- IC50 (second compound 3.16 µM): 639 nM
- IC50 (second compound 10 µM): 463 nM
- IC50 (second compound 31.6 µM): 448 nM
- IC50 (second compound 100 µM): 386 nM
- viability, T/C [31]: 99.9%
- viability, T/C [32]: 97.6%
- viability, T/C [33]: 102%
- viability, T/C [34]: 72.1%
- viability, T/C [35]: 36.8%
- viability, T/C [36]: 12.9%
- viability, T/C [37]: 92.9%
- viability, T/C [38]: 107%
- viability, T/C [39]: 112%
- viability, T/C [40]: 81.3%
- viability, T/C [41]: 33.6%
- viability, T/C [42]: 11%
- viability, T/C [43]: 87.4%
- viability, T/C [44]: 99.7%
- viability, T/C [45]: 95.3%
- viability, T/C [46]: 63.8%
- viability, T/C [47]: 25.9%
- viability, T/C [48]: 10.8%
- viability, T/C [49]: 80.7%
- viability, T/C [50]: 90.9%
- viability, T/C [51]: 101%
- viability, T/C [52]: 62.5%
- viability, T/C [53]: 25.1%
- viability, T/C [54]: 11.2%
- viability, T/C [55]: 78.3%
- viability, T/C [56]: 81%
- viability, T/C [57]: 76.5%
- viability, T/C [58]: 58%
- viability, T/C [59]: 21.3%
- viability, T/C [60]: 9.59%

Compound: Cn1ncnc1[C@H]1c2n[nH]c(=O)c3cc(F)cc(c23)N[C@@H]1c1ccc(F)cc1 + Cn1nnc2c(C(N)=O)ncn2c1=O
- IC50 (second compound 1 µM): 205 nM
- IC50 (second compound 3.16 µM): 124 nM
- IC50 (second compound 10 µM): 57.7 nM
- IC50 (second compound 31.6 µM): < 9.49 nM
- IC50 (second compound 100 µM): < 9.49 nM
- viability, T/C [31]: 79.6%
- viability, T/C [32]: 74%
- viability, T/C [33]: 58.4%
- viability, T/C [34]: 45.8%
- viability, T/C [35]: 39.8%
- viability, T/C [36]: 36.3%
- viability, T/C [37]: 79.4%
- viability, T/C [38]: 65.2%
- viability, T/C [39]: 51.1%
- viability, T/C [40]: 45.3%
- viability, T/C [41]: 38.5%
- viability, T/C [42]: 39.1%
- viability, T/C [43]: 58.6%
- viability, T/C [44]: 54.8%
- viability, T/C [45]: 45.9%
- viability, T/C [46]: 43.1%
- viability, T/C [47]: 40.8%
- viability, T/C [48]: 36.3%
- viability, T/C [49]: 50.2%
- viability, T/C [50]: 46.1%
- viability, T/C [51]: 44.2%
- viability, T/C [52]: 39.4%
- viability, T/C [53]: 38.9%
- viability, T/C [54]: 30.1%
- viability, T/C [55]: 44.4%
- viability, T/C [56]: 41.8%
- viability, T/C [57]: 35.1%
- viability, T/C [58]: 35.1%
- viability, T/C [59]: 32.6%
- viability, T/C [60]: 33.3%

Compound: O=C(c1cc(Cc2n[nH]c(=O)c3ccccc23)ccc1F)N1CCN(C(=O)C2CC2)CC1 + Cn1nnc2c(C(N)=O)ncn2c1=O
- IC50 (second compound 1 µM): 21300 nM
- IC50 (second compound 3.16 µM): 20900 nM
- IC50 (second compound 10 µM): 9360 nM
- IC50 (second compound 31.6 µM): 3700 nM
- IC50 (second compound 100 µM): 263 nM
- viability, T/C [33]: 92.8%
- viability, T/C [34]: 92.8%
- viability, T/C [35]: 97.3%
- viability, T/C [36]: 78.4%
- viability, T/C (second compound 1 µM, first compound 9.49 µM): 61%
- viability, T/C (second compound 1 µM, first compound 30 µM): 45.4%
- viability, T/C [39]: 102%
- viability, T/C [40]: 93.6%
- viability, T/C [41]: 91.8%
- viability, T/C [42]: 86.5%
- viability, T/C (second compound 3.16 µM, first compound 9.49 µM): 54.7%
- viability, T/C (second compound 3.16 µM, first compound 30 µM): 47.9%
- viability, T/C [45]: 72.6%
- viability, T/C [46]: 83.1%
- viability, T/C [47]: 75.5%
- viability, T/C [48]: 64.2%
- viability, T/C (second compound 10 µM, first compound 9.49 µM): 50.6%
- viability, T/C (second compound 10 µM, first compound 30 µM): 45.1%
- viability, T/C [51]: 61.8%
- viability, T/C [52]: 58.1%
- viability, T/C [53]: 57.5%
- viability, T/C [54]: 49.5%
- viability, T/C (second compound 31.6 µM, first compound 9.49 µM): 45.5%
- viability, T/C (second compound 31.6 µM, first compound 30 µM): 41.2%
- viability, T/C [57]: 53.9%
- viability, T/C [58]: 48.4%
- viability, T/C [59]: 46.5%
- viability, T/C [60]: 43.7%
- viability, T/C (second compound 100 µM, first compound 9.49 µM): 39%
- viability, T/C (second compound 100 µM, first compound 30 µM): 37%
